# Test results published in US20020035061A1, “COMPOSITIONS AND METHODS FOR TREATING INFECTIONS USING CATIONIC PEPTIDES ALONE OR IN COMBINATION WITH ANTIBIOTICS” (priority 1996, published 2002).
# Where “and” joins values, the source holds several entries; their conditions need not be identical. Equal values may be shown once. Read-outs that look alike come from different tables or passages of the source.
# Legend:
# E. faecium = assay type: cell-based
# E. cloacae = assay type: cell-based
# E. coli = assay type: cell-based; details: for Peptide MIC values: agarose dilution
# A. calcoaceticus = assay type: cell-based
# E. faecalis = assay type: cell-based; details: for MIC, Peptide: unmodified parent peptide
# K. pneumoniae = assay type: cell-based
# S. epidermidis = assay type: cell-based
# S. marcescens = assay type: cell-based
# P. aeruginosa = assay type: cell-based; details: for Peptide MIC values: agarose dilution
# S. pneumoniae = assay: Agarose dilution assay (MIC); assay type: cell-based; details: for Peptide MIC values: agarose dilution
# [1] = system: MSSA (Smith, ATCC # 19640); assay: In vivo efficacy, MSSA infection; set-up: species or system S. aureus; details: formulation D; for % Survival: 60 min post-infection, end of eight day observation
# S. maltophilia = assay type: cell-based
# S. aureus = assay type: cell-based; details: for Peptide MIC values: agarose dilution; for MIC, Peptide: unmodified parent peptide
# H. influenzae = assay: Agarose dilution assay (MIC); assay type: cell-based
# [2] = system: microorganisms with acquired resistance; assay: microbe, parasite or virus in culture; assay type: cell-based; details: for Peptide MIC: combination with Mupirocin, in µg/mL
# [3] = system: inherently resistant microorganisms; assay: microbe, parasite or virus in culture; assay type: cell-based
# [4] = S. maltophilia 2, Piperacillin section
# [5] = peptide + Piperacillin, S. maltophilia 2
sequence,measurement,setting,value
ILKKWPWWPWRRK [MBI 11CN],MIC,E. faecium; E. faecium EFM001,8 µg/mL
same,Peptide MIC values,E. faecium; agarose dilution,8 µg/mL
same,MIC,E. cloacae; E. cloacae ECL007,>64 µg/mL
same,MIC,E. coli; E. coli ECO002,8 µg/mL
same,Peptide MIC values,E. coli; E. coli ATCC 25922,16 µg/mL
same,Peptide MIC values,E. coli; E. coli NCTC 10418,4 µg/mL
same,MIC,A. calcoaceticus; A. calcoaceticus AC001,128 µg/mL
same,MIC,E. faecalis; E. faecalis EFS001,32 µg/mL
same,MIC,K. pneumoniae; K. pneumoniae KP002,128 µg/mL
same,MIC,S. epidermidis; S. epidermidis SE001,2 µg/mL
same,MIC,S. marcescens; S. marcescens SBSM1,>128 µg/mL
same,MIC,S. marcescens; S. marcescens SMS003,>128 µg/mL
same,Peptide MIC values,"S. marcescens; agarose dilution, S. marcescens SM82",>128 µg/mL
same,MIC,P. aeruginosa; P. aeruginosa PA003,>128 µg/mL
same,Peptide MIC values,P. aeruginosa; P. aeruginosa ATCC 27853,>128 µg/mL
same,Peptide MIC values,P. aeruginosa; P. aeruginosa NCTC 10662,>128 µg/mL
same,MIC,S. pneumoniae; S. pneumoniae SBSPN2,>128 µg/mL
same,Peptide MIC values,S. pneumoniae; S. pneumoniae 406LE8,>128 µg/mL
same,Peptide MIC values,S. pneumoniae; S. pneumoniae 60120,>128 µg/mL
same,Peptide MIC values,S. pneumoniae; S. pneumoniae ATCC 49619,64 µg/mL
same,% Survival,[1]; 12 mg/kg ip,0%
same,% Survival,[1]; 24 mg/kg ip,50%
same,mice rescued from MSSA infection,"[1]; mice, ip 60 min post-infection, 35.7 mg/kg",100%
same,activity,"[1]; mice, ip, dose levels lower than 35.7 mg/kg",little or no activity
same,MIC,S. maltophilia; S. maltophilia SMA001,64 µg/mL
same,MIC,S. aureus; S. aureus SA003,2 µg/mL
same,Peptide MIC values,S. aureus; S. aureus MRSA9,2 µg/mL
same,Peptide MIC values,S. aureus; S. aureus MRSA13,16 µg/mL
same,Peptide MIC values,S. aureus; S. aureus MRSA17,4 µg/mL
same,MIC,H. influenzae; H. influenzae HIN001,>128 µg/mL
same,Peptide MIC + Tobramycin,[2]; A. baumannii ABI001,16 µg/mL
same,Tobramycin MIC + Peptide,[2]; A. baumannii ABI001,4 µg/mL
same,Peptide MIC Alone,"[2]; A. baumannii ABI001, Tobramycin section",64 µg/mL
same,Peptide MIC + Piperacillin,[2]; A. calcoaceticus 3,32 µg/mL
same,Piperacillin MIC + Peptide,[2]; A. calcoaceticus 3,16 µg/mL
same,Peptide MIC Alone,"[2]; A. calcoaceticus 3, Piperacillin section",64 µg/mL
same,Peptide MIC + Tobramycin,[2]; E. coli EC0006,0.25 µg/mL
same,Tobramycin MIC + Peptide,[2]; E. coli EC0006,4 µg/mL
same,Peptide MIC Alone,"[2]; E. coli EC0006, Tobramycin section",8 µg/mL
same,Peptide MIC,[2]; E. faecium,8
same,Peptide MIC + Piperacillin,[2]; P. aeruginosa 22,32 µg/mL
same,Piperacillin MIC + Peptide,[2]; P. aeruginosa 22,4 µg/mL
same,Peptide MIC Alone,"[2]; P. aeruginosa 22, Piperacillin section",64 µg/mL
same,Peptide MIC + Piperacillin,[2]; P. aeruginosa 23,4 µg/mL
same,Piperacillin MIC + Peptide,[2]; P. aeruginosa 23,64 µg/mL
same,Peptide MIC Alone,"[2]; P. aeruginosa 23, Piperacillin section",128 µg/mL
same,Peptide MIC + Tobramycin,[2]; P. aeruginosa PA032,64 µg/mL
same,Tobramycin MIC + Peptide,[2]; P. aeruginosa PA032,4 µg/mL
same,Peptide MIC Alone,"[2]; P. aeruginosa PA032, Tobramycin section",>128 µg/mL
same,Peptide MIC,[2]; S. aureus,16
same,Peptide MIC + Piperacillin,[2]; S. maltophilia 2,32 µg/mL
same,Piperacillin MIC + Peptide,[2]; S. maltophilia 2,16 µg/mL
same,Peptide MIC Alone,[2]; [4],64 µg/mL
same,Peptide MIC + Tobramycin,[2]; S. maltophilia SMA029,64 µg/mL
same,Tobramycin MIC + Peptide,[2]; S. maltophilia SMA029,2 µg/mL
same,Peptide MIC Alone,"[2]; S. maltophilia SMA029, Tobramycin section",>128 µg/mL
same,Peptide MIC + Tobramycin,[2]; S. maltophilia SMA030,64 µg/mL
same,Tobramycin MIC + Peptide,[2]; S. maltophilia SMA030,2 µg/mL
same,Peptide MIC Alone,"[2]; S. maltophilia SMA030, Tobramycin section",>128 µg/mL
same,FIC,"[2]; peptide + Piperacillin, A. calcoaceticus 3",1.00
same,FIC,"[2]; peptide + Piperacillin, P. aeruginosa 22",0.52
same,FIC,"[2]; peptide + Piperacillin, P. aeruginosa 23",0.53
same,FIC,[2]; [5],0.75
same,FIC,"[2]; peptide + Tobramycin, A. baumannii ABI001",0.50
same,FIC,"[2]; peptide + Tobramycin, E. coli EC0006",0.53
same,FIC,"[2]; peptide + Tobramycin, P. aeruginosa PA032",0.50
same,FIC,"[2]; peptide + Tobramycin, S. maltophilia SMA029",0.27
same,FIC,"[2]; peptide + Tobramycin, S. maltophilia SMA030",0.27
ILRWPWWPWRRK [MBI 11B7CN],MIC,E. faecium; E. faecium strain EFM001,4 µg/mL
same,Peptide MIC + Ceftriaxone,[3]; P. aeruginosa,64 µg/mL
same,Peptide MIC Alone,"[3]; P. aeruginosa, Ceftriaxone section",128 µg/mL
same,Peptide MIC + Piperacillin,[3]; S. aureus MRSA,2 µg/mL
same,Peptide MIC Alone,"[3]; S. aureus MRSA, Piperacillin section",4 µg/mL
same,Peptide MIC Alone,"[3]; S. maltophilia, Ceftriaxone section",32 µg/mL
same,FIC,"[3]; peptide + Ceftriaxone, P. aeruginosa",0.50
same,FIC,"[3]; peptide + Piperacillin, S. aureus MRSA",0.50
same,"MIC, Peptide","E. cloacae; E. cloacae ECL007, unmodified parent peptide",128 µg/mL
same,MIC,E. cloacae; E. cloacae strain ECL0009,32 µg/mL
same,"MIC, Peptide","E. coli; E. coli ECO005, unmodified parent peptide",4 µg/mL
same,MIC,E. coli; E. coli strain ECO002,8 µg/mL
same,"MIC, Peptide","A. calcoaceticus; A. calcoaceticus AC002, unmodified parent peptide",2 µg/mL
same,MIC,A. calcoaceticus; A. calcoaceticus strain AC003,32 µg/mL
same,"MIC, Peptide",E. faecalis; E. faecalis EFS004,8 µg/mL
same,"MIC, Peptide",E. faecalis; E. faecalis EFS008,2 µg/mL and 4 µg/mL
same,MIC,E. faecalis; E. faecalis strain EFS004,4 µg/mL
same,"MIC, Peptide","K. pneumoniae; K. pneumoniae KP001, unmodified parent peptide",4 µg/mL and 8 µg/mL
same,MIC,K. pneumoniae; K. pneumoniae strain KP0011,32 µg/mL
same,"MIC, Peptide","S. epidermidis; S. epidermidis SE010, unmodified parent peptide",2 µg/mL
same,MIC,S. epidermidis; S. epidermidis strain SE003,2 µg/mL
same,"MIC, Peptide","S. marcescens; S. marcescens SMS003, unmodified parent peptide",>128 µg/mL
same,MIC,S. marcescens; S. marcescens strain SBSM1,>128 µg/mL
same,"MIC, Peptide","P. aeruginosa; P. aeruginosa PA004, unmodified parent peptide",128 µg/mL
same,MIC,P. aeruginosa; P. aeruginosa strain PA004,128 µg/mL
same,MIC,S. pneumoniae; S. pneumoniae strain SBSPN3,>128 µg/mL
same,% Survival,[1]; 12 mg/kg ip,0%
same,% Survival,[1]; 18 mg/kg ip,10%
same,% Survival,[1]; 24 mg/kg ip,60%
same,"MIC, Peptide","S. maltophilia; S. maltophilia SMA002, unmodified parent peptide",16 µg/mL
same,MIC,S. maltophilia; S. maltophilia strain SMA004,128 µg/mL
same,"MIC, Peptide",S. aureus; S. aureus SA010,1 µg/mL
same,"MIC, Peptide",S. aureus; S. aureus SA011,4 µg/mL
same,"MIC, Peptide",S. aureus; S. aureus SA014,2 µg/mL
same,"MIC, Peptide",S. aureus; S. aureus SA018,16 µg/mL
same,"MIC, Peptide",S. aureus; S. aureus SA025,1 µg/mL
same,"MIC, Peptide",S. aureus; S. aureus SA093,1 µg/mL
same,MIC,S. aureus; S. aureus strain SA009,2 µg/mL
same,MIC,H. influenzae; H. influenzae strain HIN002,>128 µg/mL
same,Ceftriaxone MIC + Peptide,[2]; A. baumannii ABI002,8 µg/mL
same,Peptide MIC + Ceftriaxone,[2]; A. baumannii ABI002,8 µg/mL
same,Peptide MIC Alone,"[2]; A. baumannii ABI002, Ceftriaxone section",32 µg/mL
same,Ceftriaxone MIC + Peptide,[2]; A. baumannii ABI005,8 µg/mL
same,Peptide MIC + Ceftriaxone,[2]; A. baumannii ABI005,1 µg/mL
same,Peptide MIC Alone,"[2]; A. baumannii ABI005, Ceftriaxone section",16 µg/mL
same,Peptide MIC + Piperacillin,[2]; H. influenzae 1,1 µg/mL
same,Piperacillin MIC + Peptide,[2]; H. influenzae 1,8 µg/mL
same,Peptide MIC Alone,"[2]; H. influenzae 1, Piperacillin section",>128 µg/mL
same,Peptide MIC + Piperacillin,[2]; S. maltophilia 2,8 µg/mL
same,Piperacillin MIC + Peptide,[2]; S. maltophilia 2,16 µg/mL
same,Peptide MIC Alone,[2]; [4],128 µg/mL
same,Peptide MIC + Piperacillin,[2]; S. marcescens 1,4 µg/mL
same,Piperacillin MIC + Peptide,[2]; S. marcescens 1,8 µg/mL
same,Peptide MIC Alone,"[2]; S. marcescens 1, Piperacillin section",>128 µg/mL
same,FIC,"[2]; peptide + Ceftriaxone, A. baumannii ABI002",0.50
same,FIC,"[2]; peptide + Ceftriaxone, A. baumannii ABI005",0.56
same,FIC,"[2]; peptide + Piperacillin, H. influenzae 1",0.13
same,FIC,[2]; [5],1.00
same,FIC,"[2]; peptide + Piperacillin, S. marcescens 1",0.27
